Test results taken from ChEMBL document CHEMBL1145244, “In vitro advanced antimycobacterial screening of isoniazid-related hydrazones, hydrazides and cyanoboranes: part 14” (2005).
Converted amounts (≈) assume the structure as drawn.

Key:
Assay type in all cases: functional
[1] = system: Mycobacterium tuberculosis; assay: In vitro antimycobacterial activity against isoniazid-resistant Mycobacterium tuberculosis strain
[2] = system: Mycobacterium tuberculosis; assay: Minimum inhibitory concentration against isoniazid-resistant Mycobacterium tuberculosis strain
[3] = system: Mycobacterium tuberculosis; assay: In vitro antimycobacterial activity against ethambutol-resistant Mycobacterium tuberculosis strain
[4] = system: Mycobacterium tuberculosis; assay: In vitro antimycobacterial activity against ethionamide-resistant Mycobacterium tuberculosis strain
[5] = system: Mycobacterium tuberculosis; assay: In vitro antimycobacterial activity against thiacetazone resistant Mycobacterium tuberculosis strain
[6] = system: Mycobacterium tuberculosis; assay: In vitro antimycobacterial activity against rifampin-resistant Mycobacterium tuberculosis strain

Structure (SMILES)	MBC [1] [µg/mL]	MIC [2] [µg/mL]	MIC [3] [µg/mL]	MIC [1] [µg/mL]	MIC [4] [µg/mL]	MIC [5] [µg/mL]	MBC [6] [µg/mL]	MIC [6] [µg/mL]
NNC(=O)c1ccncc1 [ISONIAZID]	> 1.6	> 0.2						
N#CC[n+]1ccc(C(=O)NNCC(F)(F)F)cc1	> 25		12.5	> 25	> 25	> 25	6.25	12.5
C/C=N/NC(=O)c1ccncc1	> 0.75		0.025 (≈ 0.153 µM)	> 0.75	0.375 (≈ 2.3 µM)	> 0.75	0.05 (≈ 0.306 µM)	0.05 (≈ 0.306 µM)
N#CC[n+]1ccc(C(=O)NNCc2ccccc2)cc1	> 25		6.25	> 25	> 25	> 25		
O=C(N/N=C/c1ccc(C(F)(F)F)cc1)c1ccncc1	> 1.6		0.2 (≈ 0.682 µM)	> 1.6	1.6 (≈ 5.46 µM)	> 1.6	0.4 (≈ 1.36 µM)	0.2 (≈ 0.682 µM)
C/C(=N\NC(=O)c1ccncc1)c1cccc(/C(C)=N/NC(=O)c2ccncc2)n1	12.5 (≈ 31.1 µM)		≤ 0.2	> 12.5	> 12.5	> 12.5	6.25 (≈ 15.6 µM)	≤ 0.2
C/C(=N\NC(=O)c1ccncc1)C(F)(F)F	> 1.6		0.2 (≈ 0.865 µM)	> 1.6	> 1.6	> 1.6	0.2 (≈ 0.865 µM)	0.2 (≈ 0.865 µM)
